Reference: BindingDB's records for doi:10.1111/j.1476-5381.1996.tb15208.x (Smithkline Beecham Pharmaceuticals, 1996)

Tests used:
D(3) dopamine receptor = D(3) dopamine receptor (Homo sapiens, UniProt P35462)
[1] = molecular target: 5-hydroxytryptamine receptor 2B (Rattus norvegicus, UniProt P30994)
[2] = molecular target: T1, 5-hydroxytryptamine receptor 1F (Homo sapiens, UniProt P30939)
T1 sequence (P30939 whole entry): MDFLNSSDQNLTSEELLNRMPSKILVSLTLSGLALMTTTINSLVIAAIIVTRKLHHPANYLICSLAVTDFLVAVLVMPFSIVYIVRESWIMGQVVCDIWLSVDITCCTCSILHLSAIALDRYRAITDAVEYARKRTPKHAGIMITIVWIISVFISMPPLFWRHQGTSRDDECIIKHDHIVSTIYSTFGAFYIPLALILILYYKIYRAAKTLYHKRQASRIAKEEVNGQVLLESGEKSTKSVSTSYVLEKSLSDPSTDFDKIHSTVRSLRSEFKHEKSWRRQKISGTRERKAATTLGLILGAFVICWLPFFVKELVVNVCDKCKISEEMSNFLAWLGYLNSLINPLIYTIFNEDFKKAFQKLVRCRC

Histamine H1 receptor = Histamine H1 receptor (Cavia porcellus, UniProt P31389)
[3] = molecular target: 5-hydroxytryptamine receptor 7 (Homo sapiens, UniProt P34969)
D(4) dopamine receptor = molecular target: T2, D(4) dopamine receptor (Homo sapiens, UniProt P21917)
T2 sequence (P21917 whole entry): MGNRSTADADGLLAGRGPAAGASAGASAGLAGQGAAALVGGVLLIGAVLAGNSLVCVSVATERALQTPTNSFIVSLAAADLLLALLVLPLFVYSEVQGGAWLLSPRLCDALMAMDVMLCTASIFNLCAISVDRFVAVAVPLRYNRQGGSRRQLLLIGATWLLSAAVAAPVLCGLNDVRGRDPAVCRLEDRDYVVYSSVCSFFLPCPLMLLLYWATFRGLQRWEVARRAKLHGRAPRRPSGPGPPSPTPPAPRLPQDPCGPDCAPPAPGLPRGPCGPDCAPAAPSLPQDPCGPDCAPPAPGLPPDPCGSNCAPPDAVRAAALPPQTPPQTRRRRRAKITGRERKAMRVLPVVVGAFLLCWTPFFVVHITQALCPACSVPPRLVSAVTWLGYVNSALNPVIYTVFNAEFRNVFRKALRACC

D(2) dopamine receptor = D(2) dopamine receptor (Homo sapiens, UniProt P14416)
[4] = molecular target: Gamma-aminobutyric acid receptor subunit alpha-1 (Rattus norvegicus, UniProt P62813)
[5] = molecular target: 5-hydroxytryptamine receptor 1D (Cavia porcellus, UniProt Q60484)
[6] = molecular target: 5-hydroxytryptamine receptor 2A (Homo sapiens, UniProt P28223)
[7] = molecular target: T3, Alpha-1A adrenergic receptor (Rattus norvegicus, UniProt P43140)
T3 sequence (P43140 whole entry): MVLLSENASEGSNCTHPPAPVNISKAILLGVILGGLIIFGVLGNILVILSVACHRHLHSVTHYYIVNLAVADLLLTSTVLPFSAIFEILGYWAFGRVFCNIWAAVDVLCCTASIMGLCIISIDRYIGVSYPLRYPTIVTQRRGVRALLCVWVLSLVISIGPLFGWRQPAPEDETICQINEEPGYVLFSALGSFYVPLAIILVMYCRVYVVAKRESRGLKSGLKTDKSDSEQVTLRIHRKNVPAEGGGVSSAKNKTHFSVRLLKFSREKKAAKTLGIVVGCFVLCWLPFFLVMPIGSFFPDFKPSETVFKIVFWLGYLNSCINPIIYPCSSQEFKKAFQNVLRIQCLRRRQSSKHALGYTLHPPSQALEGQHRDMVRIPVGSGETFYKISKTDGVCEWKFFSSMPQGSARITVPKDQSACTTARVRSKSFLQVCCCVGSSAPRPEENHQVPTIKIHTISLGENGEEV

[8] = molecular target: T4, 5-hydroxytryptamine receptor 3A (Rattus norvegicus, UniProt P35563)
T4 sequence (P35563 whole entry): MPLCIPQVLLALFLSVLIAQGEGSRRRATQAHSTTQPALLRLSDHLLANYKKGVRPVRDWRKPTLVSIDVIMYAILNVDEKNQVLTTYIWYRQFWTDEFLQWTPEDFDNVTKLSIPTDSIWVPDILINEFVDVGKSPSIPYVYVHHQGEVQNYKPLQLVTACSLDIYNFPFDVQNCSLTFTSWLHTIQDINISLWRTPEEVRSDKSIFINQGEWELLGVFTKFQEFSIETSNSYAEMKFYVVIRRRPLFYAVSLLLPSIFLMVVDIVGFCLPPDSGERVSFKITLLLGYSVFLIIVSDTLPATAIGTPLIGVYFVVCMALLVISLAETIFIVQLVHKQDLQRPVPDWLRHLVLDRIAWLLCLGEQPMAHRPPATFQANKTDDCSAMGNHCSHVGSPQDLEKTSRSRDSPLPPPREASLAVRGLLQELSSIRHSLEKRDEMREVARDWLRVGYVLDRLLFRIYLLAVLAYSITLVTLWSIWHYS

[9] = molecular target: 5-hydroxytryptamine receptor 1E (Homo sapiens, UniProt P28566)
Adenosine receptor A1 = molecular target: T5, Adenosine receptor A1 (Rattus norvegicus, UniProt P25099)
T5 sequence (P25099 whole entry): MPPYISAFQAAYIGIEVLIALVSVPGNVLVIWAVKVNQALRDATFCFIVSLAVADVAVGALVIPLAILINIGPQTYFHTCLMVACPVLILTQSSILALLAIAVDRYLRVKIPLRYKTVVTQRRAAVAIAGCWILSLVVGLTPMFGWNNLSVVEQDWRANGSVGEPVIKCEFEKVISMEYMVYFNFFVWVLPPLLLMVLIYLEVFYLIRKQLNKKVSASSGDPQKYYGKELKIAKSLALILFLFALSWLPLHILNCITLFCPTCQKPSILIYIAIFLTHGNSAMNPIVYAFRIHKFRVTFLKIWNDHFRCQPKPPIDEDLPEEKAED

Chain of 5-hydroxytryptamine receptor 7 (P34969 whole entry): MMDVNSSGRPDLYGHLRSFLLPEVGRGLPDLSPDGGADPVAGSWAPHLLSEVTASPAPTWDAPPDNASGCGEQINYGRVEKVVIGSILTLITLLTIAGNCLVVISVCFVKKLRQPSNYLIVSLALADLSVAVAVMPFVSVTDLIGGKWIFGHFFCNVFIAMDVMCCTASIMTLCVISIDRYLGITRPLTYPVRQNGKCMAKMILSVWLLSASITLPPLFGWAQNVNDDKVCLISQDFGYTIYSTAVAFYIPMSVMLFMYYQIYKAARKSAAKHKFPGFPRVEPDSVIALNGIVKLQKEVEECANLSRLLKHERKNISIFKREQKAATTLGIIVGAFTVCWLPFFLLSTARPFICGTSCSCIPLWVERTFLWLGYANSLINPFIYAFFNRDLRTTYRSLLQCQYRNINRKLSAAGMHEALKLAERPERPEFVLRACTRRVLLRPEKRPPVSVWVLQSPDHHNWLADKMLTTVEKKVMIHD
Chain of 5-hydroxytryptamine receptor 1D (Q60484 whole entry): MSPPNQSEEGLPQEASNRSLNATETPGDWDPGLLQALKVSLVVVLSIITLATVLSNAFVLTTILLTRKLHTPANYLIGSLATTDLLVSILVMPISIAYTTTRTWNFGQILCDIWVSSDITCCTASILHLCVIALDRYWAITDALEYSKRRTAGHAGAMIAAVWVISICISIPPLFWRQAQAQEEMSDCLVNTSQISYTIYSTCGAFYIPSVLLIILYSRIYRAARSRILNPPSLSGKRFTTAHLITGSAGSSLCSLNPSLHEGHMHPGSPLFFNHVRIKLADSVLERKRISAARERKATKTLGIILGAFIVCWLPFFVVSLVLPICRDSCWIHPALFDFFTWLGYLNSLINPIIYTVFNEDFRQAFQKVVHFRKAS
Chain of 5-hydroxytryptamine receptor 2B (P30994 whole entry): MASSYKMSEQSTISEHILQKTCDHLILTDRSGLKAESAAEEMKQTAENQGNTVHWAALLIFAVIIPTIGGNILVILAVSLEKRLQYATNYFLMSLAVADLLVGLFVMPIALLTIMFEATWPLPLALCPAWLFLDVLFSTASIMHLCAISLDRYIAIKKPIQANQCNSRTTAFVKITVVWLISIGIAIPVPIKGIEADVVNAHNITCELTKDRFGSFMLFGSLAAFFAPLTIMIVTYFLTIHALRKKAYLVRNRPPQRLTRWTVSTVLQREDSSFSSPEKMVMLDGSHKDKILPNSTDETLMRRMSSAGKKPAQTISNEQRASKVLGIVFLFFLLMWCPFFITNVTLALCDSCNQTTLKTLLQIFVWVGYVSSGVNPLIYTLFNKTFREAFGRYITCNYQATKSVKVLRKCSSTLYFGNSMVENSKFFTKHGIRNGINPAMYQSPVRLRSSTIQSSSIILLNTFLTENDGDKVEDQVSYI
Chain of Gamma-aminobutyric acid receptor subunit alpha-1 (P62813 whole entry): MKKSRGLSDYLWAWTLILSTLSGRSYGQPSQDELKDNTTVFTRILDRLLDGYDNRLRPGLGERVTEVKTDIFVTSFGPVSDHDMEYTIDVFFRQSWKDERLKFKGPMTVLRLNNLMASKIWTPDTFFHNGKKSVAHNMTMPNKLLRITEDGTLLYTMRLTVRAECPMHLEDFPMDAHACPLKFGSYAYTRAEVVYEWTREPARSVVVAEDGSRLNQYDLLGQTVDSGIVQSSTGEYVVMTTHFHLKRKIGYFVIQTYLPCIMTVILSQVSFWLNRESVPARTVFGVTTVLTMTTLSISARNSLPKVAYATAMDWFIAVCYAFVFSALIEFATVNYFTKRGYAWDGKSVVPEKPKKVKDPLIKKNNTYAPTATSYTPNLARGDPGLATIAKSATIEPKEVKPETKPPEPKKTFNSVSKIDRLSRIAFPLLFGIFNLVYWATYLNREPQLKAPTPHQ
Chain of 5-hydroxytryptamine receptor 2A (P28223 whole entry): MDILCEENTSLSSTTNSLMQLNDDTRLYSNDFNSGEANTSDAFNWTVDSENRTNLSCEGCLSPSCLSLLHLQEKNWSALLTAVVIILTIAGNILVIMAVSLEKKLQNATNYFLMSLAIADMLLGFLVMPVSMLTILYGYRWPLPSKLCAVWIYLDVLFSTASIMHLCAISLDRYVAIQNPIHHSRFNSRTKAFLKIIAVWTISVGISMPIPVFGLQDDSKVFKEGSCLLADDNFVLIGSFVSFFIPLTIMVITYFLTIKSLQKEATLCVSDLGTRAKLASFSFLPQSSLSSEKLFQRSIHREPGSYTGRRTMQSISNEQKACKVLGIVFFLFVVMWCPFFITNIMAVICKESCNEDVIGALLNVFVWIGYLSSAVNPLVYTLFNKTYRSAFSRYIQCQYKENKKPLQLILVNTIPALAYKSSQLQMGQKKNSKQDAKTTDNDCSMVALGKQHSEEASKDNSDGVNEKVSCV
Chain of 5-hydroxytryptamine receptor 1E (P28566 whole entry): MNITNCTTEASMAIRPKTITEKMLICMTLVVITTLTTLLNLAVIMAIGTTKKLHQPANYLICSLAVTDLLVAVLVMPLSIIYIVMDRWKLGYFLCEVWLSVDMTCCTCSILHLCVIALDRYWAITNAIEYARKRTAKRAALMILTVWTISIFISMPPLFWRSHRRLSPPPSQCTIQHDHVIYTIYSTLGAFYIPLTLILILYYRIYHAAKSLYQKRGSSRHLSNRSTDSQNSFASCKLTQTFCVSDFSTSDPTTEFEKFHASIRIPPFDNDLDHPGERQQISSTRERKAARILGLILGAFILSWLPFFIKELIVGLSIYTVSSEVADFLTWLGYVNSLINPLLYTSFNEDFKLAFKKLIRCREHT
Chain of Histamine H1 receptor (P31389 whole entry): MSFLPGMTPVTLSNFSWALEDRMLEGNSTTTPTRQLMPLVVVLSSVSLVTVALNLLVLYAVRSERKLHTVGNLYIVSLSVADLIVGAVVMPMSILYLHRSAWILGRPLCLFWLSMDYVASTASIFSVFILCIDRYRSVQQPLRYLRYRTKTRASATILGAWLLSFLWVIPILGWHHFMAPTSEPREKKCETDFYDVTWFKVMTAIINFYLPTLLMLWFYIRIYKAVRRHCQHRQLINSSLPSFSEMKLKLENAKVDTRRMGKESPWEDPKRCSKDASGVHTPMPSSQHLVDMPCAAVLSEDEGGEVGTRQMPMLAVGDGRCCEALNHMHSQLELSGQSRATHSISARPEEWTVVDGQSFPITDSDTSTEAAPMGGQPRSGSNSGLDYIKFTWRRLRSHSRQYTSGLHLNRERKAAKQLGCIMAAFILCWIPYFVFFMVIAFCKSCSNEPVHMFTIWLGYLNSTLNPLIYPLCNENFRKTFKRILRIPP
Chain of D(2) dopamine receptor (P14416 whole entry): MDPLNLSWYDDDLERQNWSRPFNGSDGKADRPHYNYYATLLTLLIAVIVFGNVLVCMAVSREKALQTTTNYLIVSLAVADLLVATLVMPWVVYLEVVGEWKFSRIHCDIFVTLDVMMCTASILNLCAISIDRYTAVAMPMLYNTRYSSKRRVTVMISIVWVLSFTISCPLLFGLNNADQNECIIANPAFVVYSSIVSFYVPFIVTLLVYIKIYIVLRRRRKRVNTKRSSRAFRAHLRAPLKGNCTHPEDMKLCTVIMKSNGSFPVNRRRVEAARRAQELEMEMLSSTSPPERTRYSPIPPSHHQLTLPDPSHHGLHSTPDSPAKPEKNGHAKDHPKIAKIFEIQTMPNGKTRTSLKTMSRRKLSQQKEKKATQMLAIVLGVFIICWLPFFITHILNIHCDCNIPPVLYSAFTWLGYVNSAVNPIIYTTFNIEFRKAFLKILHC
Chain of D(3) dopamine receptor (P35462 as listed by the source): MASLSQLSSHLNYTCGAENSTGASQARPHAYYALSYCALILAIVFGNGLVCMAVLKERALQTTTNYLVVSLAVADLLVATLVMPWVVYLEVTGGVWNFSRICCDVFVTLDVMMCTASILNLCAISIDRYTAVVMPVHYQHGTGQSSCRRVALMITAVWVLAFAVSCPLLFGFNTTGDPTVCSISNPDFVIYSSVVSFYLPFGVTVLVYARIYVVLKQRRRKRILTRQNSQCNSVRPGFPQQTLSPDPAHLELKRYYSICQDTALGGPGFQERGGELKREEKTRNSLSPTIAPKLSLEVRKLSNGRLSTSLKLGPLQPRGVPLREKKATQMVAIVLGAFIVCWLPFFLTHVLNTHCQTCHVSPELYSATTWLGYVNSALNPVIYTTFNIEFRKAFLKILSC

Ki (D(3) dopamine receptor): > 10 µM
Ki [1]: 0.00129 µM
Ki [2]: 5.01 µM
Ki (Histamine H1 receptor): > 10 µM
Ki [3]: 1 µM
Ki (D(4) dopamine receptor): > 10 µM
Ki (D(2) dopamine receptor): > 10 µM
Ki [4]: > 10 µM
Ki [5]: 1 µM
Ki [6]: 1.66 µM
Ki [7]: > 10 µM
Ki [8]: > 10 µM
Ki [9]: 5.01 µM
Ki (Adenosine receptor A1): > 10 µM
SMILES: Cn1ccc2cc3c(cc21)CCN3C(=O)Nc1cccnc1
